Measurements from PMC8620715, “Biological Activity of Triazolopyrimidine Copper(II) Complexes Modulated by an Auxiliary N-N-Chelating Heterocycle Ligands” (Molecules, 2021).
Read-outs that look alike come from different tables or passages of the source.

What was measured:
BJ cells = experiment: Lactate dehydrogenase (LDH) release assay, BJ cells; assay type: cell-based, human
Experimental: Membrane integrity after peptide treatment was assessed based on LDH release using a CytoTox 96 Non-Radioactive Cytotoxicity Assay (Promega), as previously described. […] Maximal LDH release was obtained by complete cell lysis induced by using 1% of Triton X-100. The absorption resulting from LDH activity was measured in a microplate reader Mithras 940 (Berthold) at 490 nm, and the % LDH was calculated as: [(corrected absorbance of the LDH released in treated cells)/(corrected absorbance of the total LDH released)] * 100%.

MRSA 388 = experiment: Biofilm formation on polystyrene (crystal violet), MBEC; assay type: cell-based, Staphylococcus aureus; details: MRSA 388, biofilm
Experimental: (§1) The antibacterial assays were carried out using two Gram-negative (Escherichia coli ATCC 25922, Pseudomonas aeruginosa ATCC 27853) and two Gram-positive (Staphylococcus aureus ATCC 25923, MRSA (meticillin-Resistant S. aureus) 388 (ATCC, American Type Culture Collection) bacteria.
The method for assessment of biofilm formation on polystyrene microtiter plates was based on previously published protocols. The absorbance at 490 nm was measured with an Apollo LB 911ELISA (Berthold Technologies GmbH & Co. KG, Waltham, MA, USA) reader. The minimal biofilm-eradication concentration (MBEC) was defined as the lowest concentration of antibiotics required to eradicate the biofilm. All experiments were performed in triplicate.

λ-DNA = experiment: UV-visible absorption titration with λ-DNA; assay type: binding, bacteriophage lambda; details: 5 µM complex, increasing DNA
Experimental: To determine if the compounds can interact with DNA, the 48,500 base-pairs genomic DNA from bacteriophage lambda (λ-DNA, Promega, MA, USA) was used. A stock solution of 10 µM λ-DNA (base-pair concentration) was prepared in 10 mMTris/HCl buffer containing 1 mM NaCl, pH 8.
To determine the DNA intercalating ability of complexes (1) and (2), we used the 48,500 base-pairs genomic DNA from the bacteriophage lambda (λ-DNA, Promega, Madison, USA). A 10 µM λ-DNA (base-pair concentration) stock solution was prepared in 10 mM Tris/HCl buffer, pH 8, containing 1 mM NaCl. The UV-visible absorption titration experiments were done using a constant complex concentration (5 µM). […] After DNA addition, the solutions were left to equilibrate for 5 min at room temperature before recording the spectra with a Jasco V-630 spectrophotometer. Stock solutions of compounds (1) and (2) were prepared in DMSO (1 mM) and diluted to 5 µM in 10 mM Tris/HCl containing 1 mM NaCl, pH 8.
The UV-Vis absorption titration experiments were done, keeping the complex concentration constant ([…]) and increasing the concentration of λ-DNA in Tris-HCl/NaCl buffer solution at room temperature until a saturation state was achieved. After DNA addition, the solutions were allowed to equilibrate for 5 min at room temperature. The UV-Vis absorption spectra were recorded with a Jasco V-630 spectrophotometer, using a 10 mm quartz cell. […]

[1] = tested on: B16 murine melanoma cell line; experiment: MTT cell viability assay, B16 melanoma cells; assay type: cell-based, mouse; details: for TI (therapeutic index): BJ vs B16, where no toxicity at highest concentration, a value two times higher was used
Experimental: (§2) Human fibroblast cells (BJ—ATCC CRL-2522, USA) were grown in minimal essential medium (MEM) supplemented with 2 mM L-Glutamine, 10% fetal calf serum (FCS), 100 units/mL of penicillin, and 100 µg/mL of streptomycin at 37 °C in a humidified incubator under an atmosphere containing 5% CO2. Mouse melanoma cells (B16—ATCC CRL—6475, USA) were grown in DMEM (Dulbecco’s Modified Eagle Medium) supplemented with similar reagents as MEM. All cell cultivation media and reagents were purchased from Biochrom AG (Berlin, Germany) and Sigma-Aldrich (Darmstadt, Germany).
(§3) Cell viability was evaluated using 3-(4,5-dimethylthiazol-2-yl)-2,5-diphenyltetrazolium bromide (MTT) assay as described previously. First, the cells were seeded in 96-well plates (20000 cells/well) and cultured for 24 h in medium. […] The negative control was represented by cells cultivated in a medium without the investigated compounds. Following incubation, the medium was changed, and the MTT solution was added to each well to a final concentration of 1 mg/mL and incubated for an additional 4 h, at 37 °C. Finally, the medium was collected, and DMSO was used to dissolve the insoluble formazan product. The absorbance of the samples was recorded at 570 nm using a plate reader Mithras 940 (Berthold). The data were corrected for the background, and the percentage of viable cells was obtained using the equation:Cell viability = [(A570 of treated cells)/(A570 of untreated cells)] × 100%(1)
(§4) The half-maximal inhibitory concentration (IC50) was determined by fitting the data with a sigmoidal logistical equation using the software Origin 8.1 (Microcal Inc., Los Angeles, CA, USA).

[2] = tested on: BJ normal cell line (human fibroblast cells); experiment: MTT cell viability assay, BJ normal cells; assay type: cell-based; details: for IC50 / reduction of BJ cell viability at the highest concentration: BJ
Experimental: as §2, §3, §4

P. aeruginosa 27853 = experiment: MIC by broth microdilution; assay type: cell-based, Pseudomonas aeruginosa; details: P. aeruginosa 27853, planktonic
Experimental: as §1
The antimicrobial activity of the two complexes (1) and (2) was assessed using their minimum inhibitory concentration (MIC) by the broth microdilution method, as previously described by the Clinical and Laboratory Standard Institute (CLSI; M07-A9 document). A broth microdilution assay was performed in sterile 96-well plates using Muller-Hinton broth (Scharlau; MHB). The compounds solubilized in […] (1,000 μg/mL) were serially diluted in 90 μL MHB, in concentrations ranging between 500 and 0.97 μg/mL. Overnight cultures were used to prepare suspension in phosphate-buffered saline (pH 7.0) to match a 0.5 McFarland density. The bacterial suspensions were further diluted to 1:100 by adding 0.1 mL of bacterial suspension to 9.9 mL of MHB. A volume of 10 μL of this dilution was added to each well of columns 1–10, containing different concentrations of the tested compounds. […] Additionally, 10 μL of the diluted bacterial suspension was added in column 11 (the growth control). A volume of 100 μL MHB was added to the microtiter plates’ sterility control wells (column 12). After inoculation, the plates were incubated at 35 ± 2 °C for 18 h. Growth was measured as light absorbance (620 nm) in comparison to an uninoculated well (negative control). It was detected using a microtiter plate reader (Apollo LB 911ELISA (Berthold Technologies GmbH & Co. KG, Waltham, MA, USA)). The MIC of each compound was defined as the lowest concentration required to inhibit bacterial growth.

For `Cc1cc(C)n2ncnc2n1.Cc1cc(C)n2ncnc2n1.Cc1cc(C)n2ncnc2n1.O.[Cu+2].[O-][Cl+3]([O-])([O-])[O-].[O-][Cl+3]([O-])([O-])[O-].c1cnc2c(c1)ccc1cccnc12` [Complex (2), [Cu(phen)(dmtp)2(OH2)](ClO4)2·dmtp], the “membrane integrity (LDH release)” value (BJ cells; 24 h) was “not affected”, the LDH release (BJ cells; 48 h) was “around 20%” and the MBEC (MRSA 388) was 0.04 mM. The “change of absorption spectrum on binding to λ-DNA” value (λ-DNA) was “decrease in the absorption intensity”, the “TI (therapeutic index)” value ([1]; 24 h) was 1.98 and the “TI (therapeutic index)” value ([1]; 48 h) was 1.08. The “B16 cell viability decreased to” value ([1]; B16) was 5%, the IC50 ([1]; B16, 24 h) was 6.88 µg/mL and the IC50 ([1]; B16, 24 h, read-out: IC50) was 7.6 µM. For the same molecule, the IC50 ([1]; B16, 48 h) was 4.15 µg/mL, the IC50 ([1]; B16, 48 h, read-out: IC50) was 4.58 µM and the IC50 ([2]; 24 h) was 13.61 µg/mL. The “reduction of BJ cell viability at the highest concentration” value ([2]; 24 h) was “up to 45%”, the IC50 ([2]; 24 h, read-out: IC50) was 15 µM and the IC50 ([2]; 48 h) was 4.50 µg/mL. For the same molecule, the “reduction of BJ cell viability at the highest concentration” value ([2]; 48 h) was “up to 10%”, the IC50 ([2]; 48 h, read-out: IC50) was 4.97 µM and the MIC (P. aeruginosa 27853) was 690 µM.
In the case of `Cc1cc(C)n2ncnc2n1.Cc1cc(C)n2ncnc2n1.Cc1cc(C)n2ncnc2n1.O.[Cu+2].[O-][Cl+3]([O-])([O-])[O-].[O-][Cl+3]([O-])([O-])[O-].c1ccc(-c2ccccn2)nc1` [Complex (1), [Cu(bpy)(dmtp)2(OH2)](ClO4)2·dmtp], the “membrane integrity (LDH release)” value (BJ cells; 24 h and 48 h) is reported as “did not affect the membrane integrity”, the MBEC (MRSA 388) is reported as 0.35 mM and the “change of absorption spectrum on binding to λ-DNA” value (λ-DNA) is reported as “decrease in the absorption intensity”. The “TI (therapeutic index)” value ([1]; 24 h) was 8.68, the “effect on viability of B16 cells” value ([1]; 24 h and 48 h) was “reduced the viability of B16 cells” and the “TI (therapeutic index)” value ([1]; 48 h) was 12.82. The IC50 ([1]; B16, 24 h) was 5.76 µg/mL, the IC50 ([1]; B16, 24 h, read-out: IC50) was 6.5 µM and the IC50 ([1]; B16, 48 h) was 3.90 µg/mL. For the same molecule, the IC50 ([1]; B16, 48 h, read-out: IC50) was 4.42 µM, the “effect on viability of BJ cells” value ([2]; range of tested concentrations, 24 h and 48 h) was “not affected” and the MIC (P. aeruginosa 27853) was 710 µM.
